Reference: PubChem BioAssay (NCI)
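Interpolation was linear, between the two tested concentrations surrounding the appropriate level; five concentrations were tested over 48 hours in 96-well plates. At the GI50, growth is halved. TGI: total growth inhibition.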

What was measured:
Test in all cases: DTP human tumour cell line panel, 48 h
MDA-MB-231 breast = test system: MDA-MB-231 breast
786-0 renal = test system: 786-0 renal
CAKI-1 renal = test system: CAKI-1 renal
PC-3 prostate = test system: PC-3 prostate
HCT-116 colon = test system: HCT-116 colon
HCT-15 colon = test system: HCT-15 colon
EKVX NSCLC = test system: EKVX NSCLC
SK-MEL-5 melanoma = test system: SK-MEL-5 melanoma
IGROV1 ovarian = test system: IGROV1 ovarian
HOP-62 NSCLC = test system: HOP-62 NSCLC
NCI-H522 lung = test system: NCI-H522 lung
SN12C renal = test system: SN12C renal
SF-539 CNS = test system: SF-539 CNS
NCI/ADR-RES ovarian = test system: NCI/ADR-RES ovarian
RPMI-8226 leukemia = test system: RPMI-8226 leukemia
U251 CNS = test system: U251 CNS
MALME-3M melanoma = test system: MALME-3M melanoma
SF-268 CNS = test system: SF-268 CNS
NCI-H226 lung = test system: NCI-H226 lung
SNB-75 CNS = test system: SNB-75 CNS
HS 578T breast = test system: HS 578T breast
OVCAR-3 ovarian = test system: OVCAR-3 ovarian
K-562 leukemia = test system: K-562 leukemia
SF-295 CNS = test system: SF-295 CNS
ACHN renal = test system: ACHN renal
MCF7 breast = test system: MCF7 breast
SW-620 colon = test system: SW-620 colon
T-47D breast = test system: T-47D breast
RXF 393 renal = test system: RXF 393 renal
OVCAR-8 ovarian = test system: OVCAR-8 ovarian
M14 melanoma = test system: M14 melanoma
SNB-19 CNS = test system: SNB-19 CNS
OVCAR-4 ovarian = test system: OVCAR-4 ovarian
COLO 205 colon = test system: COLO 205 colon
OVCAR-5 ovarian = test system: OVCAR-5 ovarian
HOP-92 NSCLC = test system: HOP-92 NSCLC
HL-60(TB) leukemia = test system: HL-60(TB) leukemia
DU-145 prostate = test system: DU-145 prostate
LOX IMVI melanoma = test system: LOX IMVI melanoma
A549 NSCLC = test system: A549 NSCLC
UACC-257 melanoma = test system: UACC-257 melanoma
SR leukemia = test system: SR leukemia
TK-10 renal = test system: TK-10 renal
SK-OV-3 ovarian = test system: SK-OV-3 ovarian
UO-31 renal = test system: UO-31 renal
A498 renal = test system: A498 renal
SK-MEL-28 melanoma = test system: SK-MEL-28 melanoma
MOLT-4 leukemia = test system: MOLT-4 leukemia
BT-549 breast = test system: BT-549 breast
NCI-H23 lung = test system: NCI-H23 lung
HCC-2998 colon = test system: HCC-2998 colon
CCRF-CEM leukemia = test system: CCRF-CEM leukemia
NCI-H460 lung = test system: NCI-H460 lung
MDA-MB-435 = test system: MDA-MB-435
HT29 colon = test system: HT29 colon
SK-MEL-2 melanoma = test system: SK-MEL-2 melanoma
UACC-62 melanoma = test system: UACC-62 melanoma
KM12 colon = test system: KM12 colon

O=c1[nH]c(Sc2sc3ccc(Cl)cc3c2CBr)nc(=S)[nH]1
GI50 (MDA-MB-231 breast): > 100 µM
TGI (MDA-MB-231 breast): > 100 µM
GI50 (786-0 renal): > 100 µM
TGI (786-0 renal): > 100 µM
GI50 (CAKI-1 renal): > 100 µM
TGI (CAKI-1 renal): > 100 µM
GI50 (PC-3 prostate): > 100 µM
TGI (PC-3 prostate): > 100 µM
GI50 (HCT-116 colon): > 100 µM
TGI (HCT-116 colon): > 100 µM
GI50 (HCT-15 colon): > 100 µM
TGI (HCT-15 colon): > 100 µM
GI50 (EKVX NSCLC): > 100 µM
TGI (EKVX NSCLC): > 100 µM
GI50 (SK-MEL-5 melanoma): > 100 µM
TGI (SK-MEL-5 melanoma): > 100 µM
GI50 (IGROV1 ovarian): > 100 µM
TGI (IGROV1 ovarian): > 100 µM
GI50 (HOP-62 NSCLC): > 100 µM
TGI (HOP-62 NSCLC): > 100 µM
GI50 (NCI-H522 lung): > 63.8 µM
TGI (NCI-H522 lung): > 100 µM
GI50 (SN12C renal): > 100 µM
TGI (SN12C renal): > 100 µM
GI50 (SF-539 CNS): > 100 µM
TGI (SF-539 CNS): > 100 µM
GI50 (NCI/ADR-RES ovarian): > 100 µM
TGI (NCI/ADR-RES ovarian): > 100 µM
GI50 (RPMI-8226 leukemia): > 100 µM
TGI (RPMI-8226 leukemia): > 100 µM
GI50 (U251 CNS): > 100 µM
TGI (U251 CNS): > 100 µM
GI50 (MALME-3M melanoma): > 100 µM
TGI (MALME-3M melanoma): > 100 µM
GI50 (SF-268 CNS): > 100 µM
TGI (SF-268 CNS): > 100 µM
GI50 (NCI-H226 lung): > 100 µM
TGI (NCI-H226 lung): > 100 µM
GI50 (SNB-75 CNS): > 100 µM
TGI (SNB-75 CNS): > 100 µM
GI50 (HS 578T breast): > 100 µM
TGI (HS 578T breast): > 100 µM
GI50 (OVCAR-3 ovarian): > 100 µM
TGI (OVCAR-3 ovarian): > 100 µM
GI50 (K-562 leukemia): > 100 µM
TGI (K-562 leukemia): > 100 µM
GI50 (SF-295 CNS): > 100 µM
TGI (SF-295 CNS): > 100 µM
GI50 (ACHN renal): > 100 µM
TGI (ACHN renal): > 100 µM
GI50 (MCF7 breast): > 100 µM
TGI (MCF7 breast): > 100 µM
GI50 (SW-620 colon): > 100 µM
TGI (SW-620 colon): > 100 µM
GI50 (T-47D breast): > 100 µM
TGI (T-47D breast): > 100 µM
GI50 (RXF 393 renal): > 81.7 µM
TGI (RXF 393 renal): > 100 µM
GI50 (OVCAR-8 ovarian): > 100 µM
TGI (OVCAR-8 ovarian): > 100 µM
GI50 (M14 melanoma): > 100 µM
TGI (M14 melanoma): > 100 µM
GI50 (SNB-19 CNS): > 100 µM
TGI (SNB-19 CNS): > 100 µM
GI50 (OVCAR-4 ovarian): > 100 µM
TGI (OVCAR-4 ovarian): > 100 µM
GI50 (COLO 205 colon): > 100 µM
TGI (COLO 205 colon): > 100 µM
GI50 (OVCAR-5 ovarian): > 100 µM
TGI (OVCAR-5 ovarian): > 100 µM
GI50 (HOP-92 NSCLC): > 100 µM
TGI (HOP-92 NSCLC): > 100 µM
GI50 (HL-60(TB) leukemia): > 100 µM
TGI (HL-60(TB) leukemia): > 100 µM
GI50 (DU-145 prostate): > 100 µM
TGI (DU-145 prostate): > 100 µM
GI50 (LOX IMVI melanoma): > 100 µM
TGI (LOX IMVI melanoma): > 100 µM
GI50 (A549 NSCLC): > 100 µM
TGI (A549 NSCLC): > 100 µM
GI50 (UACC-257 melanoma): > 100 µM
TGI (UACC-257 melanoma): > 100 µM
GI50 (SR leukemia): > 100 µM
TGI (SR leukemia): > 100 µM
GI50 (TK-10 renal): > 100 µM
TGI (TK-10 renal): > 100 µM
GI50 (SK-OV-3 ovarian): > 100 µM
TGI (SK-OV-3 ovarian): > 100 µM
GI50 (UO-31 renal): > 100 µM
TGI (UO-31 renal): > 100 µM
GI50 (A498 renal): > 100 µM
TGI (A498 renal): > 100 µM
GI50 (SK-MEL-28 melanoma): > 100 µM
TGI (SK-MEL-28 melanoma): > 100 µM
GI50 (MOLT-4 leukemia): 99.1 µM
TGI (MOLT-4 leukemia): > 100 µM
GI50 (BT-549 breast): > 100 µM
TGI (BT-549 breast): > 100 µM
GI50 (NCI-H23 lung): > 100 µM
TGI (NCI-H23 lung): > 100 µM
GI50 (HCC-2998 colon): > 100 µM
TGI (HCC-2998 colon): > 100 µM
GI50 (CCRF-CEM leukemia): > 100 µM
TGI (CCRF-CEM leukemia): > 100 µM
GI50 (NCI-H460 lung): > 100 µM
TGI (NCI-H460 lung): > 100 µM
GI50 (MDA-MB-435): > 100 µM
TGI (MDA-MB-435): > 100 µM
GI50 (HT29 colon): > 100 µM
TGI (HT29 colon): > 100 µM
GI50 (SK-MEL-2 melanoma): > 100 µM
TGI (SK-MEL-2 melanoma): > 100 µM
GI50 (UACC-62 melanoma): > 100 µM
TGI (UACC-62 melanoma): > 100 µM
GI50 (KM12 colon): > 100 µM
TGI (KM12 colon): > 100 µM
